Results taken from article PMC9227536, “Prediction of Pharmacokinetics of IDP-73152 in Humans Using Physiologically-Based Pharmacokinetics” (Pharmaceutics, 2022).

Legend:
[1] = Blood stability in rat blood (CLblood); assay type: in vitro ADME
Method: In contrast, however, the compound was unstable in the rat blood and plasma. […] The blood containing IDP-73152 was incubated at 37 °C in a water bath, and aliquots (50 μL) were collected from the mixture at 0, 10, 30, 60, 120, and 240 min. The samples were centrifuged for 5 min at 10,000× g/4 °C, and the plasma was collected/stored at -80 °C until analysis. For the estimation of the clearance in the blood (CLblood), in rats, the disappearance of IDP-73152 in the blood was assumed to be mediated by first-order kinetics. […]×total volume of the blood×BP ) to calculate CLblood.

[2] = Metabolic stability in liver microsomes, human; assay type: in vitro ADME
Method: In this study, the metabolic stability of IDP-73152 in microsomes from mice, rats, dogs, and humans, as well as rat hepatocytes, was determined. For a microsomal incubation study, the incubation mixtures, containing mouse, rat, dog, or human liver microsomes at a protein concentration of 0.5 mg/mL, 3.3 mM MgCl2, and 1.3 mM NADPH, in a 100 mM potassium phosphate buffer (pH 7.4), were preincubated for 3 min at 37 °C. In parallel, a control incubation mixture (i.e., identical composition to that of the incubation mixture without NADPH) was also prepared for comparison. The reaction was initiated by the addition of a 10 × solution of IDP-73152 (final concentration in mixtures of 1 μM) to the incubation mixtures or the control incubation mixtures. The mixtures were incubated in a shaking water bath (37 °C, 90 rpm). Aliquots (30 μL) were collected at 0, 15, 30, and 45 min from the mixture and the reaction was terminated by the addition of a 4-fold volume of ice-cold acetonitrile to the sample. The mixture was then vortexed for 5 min and centrifuged for 10 min at 10,000× g. The supernatant was collected and stored at -80 °C until the analysis. For the hepatocyte incubation study, rat hepatocytes were freshly prepared using the two-step collagenase perfusion method with slight modifications. After the isolation, cell viability during the preparation process was first determined by a trypan blue exclusion assay prior to the stability study. The preparation was considered adequate for subsequent studies if the viability was greater than 80%. When appropriate, the hepatocytes were resuspended in Williams' media E containing 10% fetal bovine serum, 1% penicillin-streptomycin, and 0.01% insulin-transferrin-selenium (i.e., 10 mg/mL insulin, 5.5 mg/mL transferrin, and 5 mg/mL selenium) at pH 7.4. The reaction was carried out with the hepatocyte suspension prepared at 1 × 10^6 cells/mL (0.5 mL) and initiated by the addition of equal volume of IDP-73152 solution (i.e., final concentration of the compound at 1 μM in 0.5 × 10^6 cells/mL of hepatocytes) to the hepatocyte suspension. […] Assuming first-order disappearance kinetics, the slope k of the logarithmically transformed IDP-73152 concentration in the sample versus time plot was determined by the linear regression analysis of the data. The total intrinsic clearance (CLint,mic, μL/min/mg protein for microsomal incubation study and CLint,hep, μL/min/million cells for hepatocytes incubation study) was then calculated using the following equations:(4) CLint, mic=k×Volume of incubation medium (μL)/Protein in incubation medium (mg) (5) CLint,hep=k×Volume of incubation (μL)/Number of cells in incubation (×10^6) The unbound intrinsic clearance, with respect to the whole liver ([…]), was then estimated for the two cases. […]

In the case of CC(C)(C)[C@H](NC(=O)[C@H](CC1CCCC1)CN(O)C=O)C(=O)N1CCC(NCc2cc(F)c(F)cc2F)CC1 [IDP-73152], the CLblood ([1]; fresh whole blood from rats, 1 μM, 37 °C) is reported as 0.717 ± 0.383 mL/min/kg, the “contribution of CLblood to the CLp” value ([1]; rats) is reported as 2.15% and the CLhep predicted at 1 μM ([2]; human, liver microsomes, pH 7.4, humans, from microsomal stability data, well-stirred liver model, read-out: CLp expected in humans (converted)) is reported as ~3.17 mL/min/kg. For the same compound, the microsomal CLint at 1 μM ([2]; human, microsomes, pH 7.4) was 31.8 ± 2.2 µL/min/mg, the “hepatic ER (extraction ratio)” value ([2]; humans, from microsomal clearance, well-stirred model) was 0.159 ± 0.009 and the “CLu,int,H” value ([2]; humans, scaled up to the whole liver from microsomes) was 206 ± 14 L/h.
